Measurements taken from patent publication US12440471B2, “Compositions and methods for the treatment of bronchopulmonary dysplasia (BPD) and BPD-associated pulmonary hypertension” (AyuVis Research, Inc., priority 2021, dated 2025).

Legend:
Format in all cases: in vivo
[1] = PK study in rat pups by SC or IV (plasma, BALF)
Excerpt: Pharmacokinetic (PK) Profile of AVR-48 (compound 8). The PK studies of AVR-48 were developed and designed in-house, by high performance liquid chromatography (HPLC), in both mouse and rat pups by IV, IP and IN dosing, to check the bioavailability of the drug formulated as solution, suspension or nanoparticle encapsulation in plasma, broncho-alveolar lavage fluid (BALF) and lung tissues.
A sustained level of AVR-48 was observed only where T1/2 was not estimable. For the IV dosed animals only, maximum concentration was followed by decline on PK Day 1 but was followed by sustained level of AVR-48 on PK Day 3. T1/2 was also not estimable. […] In summary, exposure to AVR-48 increased for 100 mg/kg/day for both routes after 3 days of twice daily administration but not for the 150 mg/kg/day groups.
Animals. C57BL/6J mice were purchased from The Jackson Laboratory (Bar Harbor, ME, USA) and were maintained in a breeding colony at Drexel University, Philadelphia, PA, USA. Animal procedures were performed in accordance with the NIH Guide for the Care and Use of Laboratory Animals and were approved by the Institutional Animal Care and Use Committee (IACUC) of Drexel University Philadelphia, PA (Protocol No. 20706). Neonatal rat pups born from female pregnant Sprague Dawley Crl:CD (SD) rats (Charles River Laboratories, St-Constant, QC, Canada) were used for the toxicology and PK studies to evaluate safety, determine the maximum tolerated dose (MTD) and the PK profile of AVR-48. A minimum 6-day acclimation period was allowed between receipt of the animals and the start of treatment to accustom the rats to the laboratory environment. All rat studies were approved by the IACUC of ITR Laboratories, Canada (Protocol No. 74691).
(§1) Formulation of AVR-48 for efficacy and toxicokinetic studies. For the mouse dose response efficacy studies, AVR-48 was reconstituted in 0.9% sterile normal saline to give a final dose concentration of […] as a colorless solution, and injected IP (30 μl) on P2 and P4. The PLGA encapsulated AVR-48 or the GFP-tagged analog was resuspended in deionized sterile water to make a nanosuspension with final dose concentration of 0.025, 0.05 and 0.11 mg/kg/drop. The surfactant Curosurf® (Cheisi Parma, Italy), available commercially, was delivered IN at a volume of 3 μl per nostril, on P2 and P4. For the toxicokinetic study of AVR-48 in rat pups, a formulation of 10% DMSO, 20% tetraglycol, 20% PEG 400, and 50% sterile water was made fresh before administration (Shah, Das et al. 2021).

[2] = system: hyperoxia-exposed BPD mouse model; assay: Hyperoxia-exposed BPD mouse model: dose response and lung morphometry
Experimental: Simultaneously, the AVR-48 nanosuspension formulation IN (0.11 mg/kg) was tested as well as in solution form, IP and IV (10 mg/kg) (through the facial vein), and confirmed that all routes of administration gave similar outcomes. […] From the PK study, as described above, the bioavailability of the drug in the plasma and lungs were similar when delivered as solution formulation via either IN or IP routes. As the goal of this study is to develop AVR-48 as a commercially viable and applicable therapeutic candidate for BPD, the IP route was selected as the preferred mode of drug delivery in neonatal murine pups, with the rationale that it would be easier to deliver the drug systemically to preterm babies IV, rather than the IN route. The results and outcome of all the routes of administration have been presented in a cumulative manner, as the endpoint was similar for all routes of administration. […] FIG. 1 is a dose response study of AVR-48 at different doses of […], given IP. ****p<0.0001. N=5-7 mice per group. 10 mg/kg (IP) was selected as the most efficacious dose. IP: intraperitoneal; Hyp: hyperoxia; BPD: Bronchopulmonary dysplasia.
as §1
For the hyperoxia experiment, newborn pups were exposed to 100% hyperoxia (P0), along with their mothers, in cages in an airtight Plexiglas chamber (OxyCycler; Biospherix, Redfield, NY, USA) as described previously by the present inventors (Syed, Das et al., 2017, Leary, Das et al. 2019, Das, Acharya et al. 2020, relevant portions incorporated herein) for 4 consecutive days (till P4) and removed to RA on P5 to be recovered till P14, so as to emulate the human BPD condition. All pups were sacrificed on P14 for further experimental analyses. The pups without any hyperoxia exposure served as the corresponding RA (normoxia) controls.
Histology, immunohistochemistry and immunofluorescence. Both the RA control and BPD mice were anesthetized (using an overdose of a cocktail of xylazine-ketamine) and lung and heart tissues were harvested after perfusion and fixed overnight in 4% paraformaldehyde. Fixed tissues were then washed in fresh PBS, dehydrated using 70% ethanol, cleared, and embedded in paraffin to be sectioned and stained with hematoxylin and eosin (H&E) for lung morphometry or immunohistochemistry/immunofluorescence as previously described (Leary, Das et al. 2019, Das, Achaiya et al. 2020, Das, Curstedt et al. 2020). Immunofluorescence staining was done for Ki67 (Abcam, 1:10) and Von Wilebrand Factor (vWF-DAKO, 1:100) on lung paraffin sections following the protocol as described earlier (Leary, Das et al. 2019) while TUNEL staining was done following the manufacturer's instructions (Roche).
Morphometry and quantification. To study chord length, septal thickness and radial alveolar count in the lungs, RV, LV and IVS thickness, 5 μm-thick left-lobe lung and heart paraffin-embedded sections were stained with H&E. Multiple randomly chosen areas (at least 10 areas) from each section were photographed using 100× total magnification. […]

[3] = system: pre-term lamb BPD model; assay: Pre-term lamb BPD model: respiratory system mechanics by forced oscillation technique
Excerpt: Forced oscillation technique (FOT) allows non-invasive measurement of respiratory system (rs) impedance (Zrs) in uncooperative subjects by applying a pressure stimulus at the airway opening and measuring the resulting flow. The inventors have shown that FOT provides reliable noninvasive measurement of respiratory system mechanics in spontaneously breathing, normal term lambs from birth through the first 5 months of life (Dahl, Bowen et al. 2018). The methods and normal reference values defined in this study provide normal physiological context for determining the pathophysiological consequences of preterm birth.

[4] = PK study in rat pups by SC or IV (plasma, BALF); settings: for accumulation ratio using AUC(0-t): BALF, SC
[5] = 2 doses IP 10 mg/kg on P2 and P4, comparable to RA controls
[6] = IP dosing, doses 0.5, 2.0, 5.0 and 10 mg/kg

CC(=O)N[C@@H]1C(Oc2ccc([N+](=O)[O-])cc2)OC(CO)C(O)C1O (stereo partly shown) [AVR-48]
accumulation ratio using AUC(0-t) ([1]; BALF, IV dosed animals): 2.04
decline of plasma concentration ([1]; IV dosed animals): declined in a bi-exponential fashion
Tmax (maximum plasma concentration) ([1]; Sprague Dawley Crl:CD, rat, in vivo, 150 mg/kg/day): 60 min
Tmax ([1]; Sprague Dawley Crl:CD, rat, in vivo, 150 mg/kg/day, Tmax (maximum plasma concentration)): 30 min
Tmax ([1]; Sprague Dawley Crl:CD, rat, in vivo, Tmax): 15 to 60 min
AUC(0-t) ([1]; Sprague Dawley Crl:CD, rat, in vivo, iv, AUC(0-t)): 4200 ng·h/mL
Cmax ([1]; Sprague Dawley Crl:CD, rat, in vivo, maximum concentration (Cmax)): 891 to 1070 ng/mL
accumulation in plasma ([1]; after 3 days of twice daily administration): no accumulation of the drug
prevention of the BPD phenotypes ([2]; 10 mg/kg IP): > 80%
chord length (alveolar sacs) [2, 5]: regained their normal shape and size
septal thickness (alveolar sacs) [2, 5]: regained their normal shape and size
radial alveolar counts (RAC) ([2]; 2 doses IP 10 mg/kg on P2 and P4, vs BPD): improved
chord length ([2]; AVR-48 administered adjuvantly with CS (Curosurf IN)): normal
interaction between the drug and CS ([2]; AVR-48 administered adjuvantly with CS in mouse pups): no adverse effect
minimum efficacious dose [2, 6]: 5.0 mg/kg
optimum / most efficacious dose [2, 6]: 10 mg/kg
minimum efficacious dose ([2]; juvenile mouse): 5 mg/kg/day
inflammatory cytokines in neonatal mouse pups with BPD ([2]; mouse, in vivo): decrease inflammatory cytokines
reactance (X7 hz) ([3]; 3 mg/Kg, day of life 10): less reactance
small airway resistance (R7-20 hz) ([3]; 3 mg/Kg, day of life 10): less small airway resistance
resistance (R7 hz; respiratory system) ([3]; 3.0 mg/Kg, day of life 10, relative to placebo): lower resistance
accumulation ratio using AUC(0-t) ([4]; 100 mg/kg/day): 1.90
accumulation ratio using AUC(0-t) ([4]; 150 mg/kg/day): 0.880
AUC(0-t) ([4]; Sprague Dawley Crl:CD, rat, in vivo, sc, AUC(0-t)): 2610 ng·h/mL
AUC(0-t) dose proportionality ([4]; rat, in vivo, sc, 75 mg/kg): increased in a dose-proportional manner
